Test results taken from PubChem BioAssay AID248 (DTP/NCI, 2004).
“And” between values parts separate entries of the source, which are not always exact repeats. Equal entries are not always repeated. Toxic doses and inconclusive results are not listed.

Tested on: L1210 leukemia ip in BDF1 mice, survival T/C
Assay: NCI In Vivo Anticancer Drug Screen. Data for tumor model L1210 Leukemia (intraperitoneal) in B6D2F1 (BDF1) mice
Conditions: endpoint: mean survival time, higher = longer survival
Procedure, shortened: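 In this screen, tumor-bearing mice given compound are compared to those given vehicle, and their survival values are reported as a treated-to-control quotient.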

[1] = dose: 44.0 mg/kg/injection, schedule: Q01DX001 (ip), vehicle: carboxymethylcellulose (CMC)
[2] = dose: 100.0 mg/kg/injection, schedule: Q01DX001 (ip), vehicle: carboxymethylcellulose (CMC)
[3] = dose: 100.0 mg/kg/injection, schedule: Q01DX001 (ip), vehicle: saline
[4] = dose: 150.0 mg/kg/injection, schedule: Q01DX001 (ip), vehicle: carboxymethylcellulose (CMC)
[5] = dose: 200.0 mg/kg/injection, schedule: Q01DX001 (ip), vehicle: saline
[6] = dose: 400.0 mg/kg/injection, schedule: Q01DX001 (ip), vehicle: carboxymethylcellulose (CMC)
[7] = dose: 400.0 mg/kg/injection, schedule: Q01DX001 (ip), vehicle: saline
[8] = dose: 100.0 mg/kg/injection, schedule: Q01DX009 (ip), vehicle: Klucel (hydroxypropylcellulose) (HPC)
[9] = dose: 100.0 mg/kg/injection, schedule: Q04DX003 (ip), vehicle: Klucel (hydroxypropylcellulose) (HPC)
[10] = dose: 200.0 mg/kg/injection, schedule: Q01DX009 (ip), vehicle: Klucel (hydroxypropylcellulose) (HPC)
[11] = dose: 200.0 mg/kg/injection, schedule: Q04DX003 (ip), vehicle: Klucel (hydroxypropylcellulose) (HPC)
[12] = dose: 400.0 mg/kg/injection, schedule: Q01DX009 (ip), vehicle: Klucel (hydroxypropylcellulose) (HPC)
[13] = dose: 400.0 mg/kg/injection, schedule: Q04DX003 (ip), vehicle: Klucel (hydroxypropylcellulose) (HPC)
[14] = dose: 50.0 mg/kg/injection, schedule: Q01DX001 (ip), vehicle: saline
[15] = dose: 100.0 mg/kg/injection, schedule: Q01DX009 (ip), vehicle: saline with Tween-80
[16] = dose: 200.0 mg/kg/injection, schedule: Q01DX009 (ip), vehicle: saline with Tween-80
[17] = dose: 400.0 mg/kg/injection, schedule: Q01DX009 (ip), vehicle: saline with Tween-80
[18] = dose: 50.0 mg/kg/injection, schedule: Q01DX009 (ip), vehicle: Klucel (hydroxypropylcellulose) (HPC)
[19] = dose: 100.0 mg/kg/injection, schedule: Q04DX002 (ip), vehicle: Klucel (hydroxypropylcellulose) (HPC)
[20] = dose: 200.0 mg/kg/injection, schedule: Q04DX002 (ip), vehicle: Klucel (hydroxypropylcellulose) (HPC)

In the case of `CSc1nc(=O)[nH]nc1SCc1ccccc1`, the T/C (dose: 22.0 mg/kg/injection, schedule: Q01DX015 (ip), vehicle: carboxymethylcellulose (CMC)) is reported as 95 % of control, the T/C (dose: 33.0 mg/kg/injection, schedule: Q01DX015 (ip), vehicle: carboxymethylcellulose (CMC)) is reported as 95 % of control and the T/C [1] is reported as 100 % of control and 103 % of control. The T/C (dose: 50.0 mg/kg/injection, schedule: Q01DX015 (ip), vehicle: carboxymethylcellulose (CMC)) was 92 % of control, the T/C (dose: 66.0 mg/kg/injection, schedule: Q01DX001 (ip), vehicle: carboxymethylcellulose (CMC)) was 98 % of control and 102 % of control and the T/C (dose: 75.0 mg/kg/injection, schedule: Q01DX009 (ip), vehicle: saline) was 103 % of control. For the same compound, the T/C (dose: 75.0 mg/kg/injection, schedule: Q01DX015 (ip), vehicle: carboxymethylcellulose (CMC)) was 87 % of control, the T/C [2] was 95 % of control and 97 % of control and 284 % of control and the T/C [3] was 100 % of control. The T/C [4] was 96 % of control and 89 % of control, the T/C (dose: 150.0 mg/kg/injection, schedule: Q01DX009 (ip), vehicle: saline) was 95 % of control and the T/C [5] was 97 % of control. The T/C (dose: 300.0 mg/kg/injection, schedule: Q01DX009 (ip), vehicle: saline) was 97 % of control, the T/C [6] was 160 % of control and the T/C [7] was 95 % of control.

In the case of `Cc1n(CC(C)C)c2c([n+]1C)C(=O)c1ccccc1C2=O`, the T/C (dose: 0.03 mg/kg/injection, schedule: Q01DX001 (ip), vehicle: saline) is reported as 98 % of control, the T/C (dose: 0.06 mg/kg/injection, schedule: Q01DX001 (ip), vehicle: saline) is reported as 109 % of control and the T/C (dose: 0.12 mg/kg/injection, schedule: Q01DX001 (ip), vehicle: saline) is reported as 106 % of control. The T/C (dose: 0.24 mg/kg/injection, schedule: Q01DX001 (ip), vehicle: saline) was 101 % of control, the T/C (dose: 0.25 mg/kg/injection, schedule: Q01DX015 (ip), vehicle: saline) was 97 % of control and the T/C (dose: 0.5 mg/kg/injection, schedule: Q01DX015 (ip), vehicle: saline) was 95 % of control. For the same compound, the T/C (dose: 1.0 mg/kg/injection, schedule: Q01DX015 (ip), vehicle: saline) was 106 % of control and 108 % of control, the T/C (dose: 2.0 mg/kg/injection, schedule: Q01DX015 (ip), vehicle: saline) was 108 % of control and the T/C (dose: 2.0 mg/kg/injection, schedule: Q04DX003 (ip), vehicle: saline) was 91 % of control.

With `CN(C)c1ccc(C(C[N+](=O)[O-])(c2ccc(N(C)C)cc2)c2ccc(N(C)C)cc2)cc1` the T/C [8] was 93 % of control, the T/C [9] was 103 % of control and the T/C [10] was 100 % of control. The T/C [11] was 93 % of control, the T/C [12] was 97 % of control and the T/C [13] was 90 % of control.

In the case of `O=C(CN1CCCCC1)N1CCN(C(=O)CN2CCCCC2)CC1`, the T/C [1] is reported as 98 % of control and 100 % of control, the T/C (dose: 50.0 mg/kg/injection, schedule: Q01DX001 (ip), vehicle: carboxymethylcellulose (CMC)) is reported as 103 % of control and the T/C (dose: 67.0 mg/kg/injection, schedule: Q01DX001 (ip), vehicle: carboxymethylcellulose (CMC)) is reported as 87 % of control and 91 % of control. The T/C [2] was 96 % of control, the T/C [4] was 91 % of control and the T/C (dose: 200.0 mg/kg/injection, schedule: Q01DX001 (ip), vehicle: carboxymethylcellulose (CMC)) was 113 % of control. The T/C [6] was 103 % of control.

With `Cc1[nH]c2ccccc2c1C(Cc1ccccc1N)c1c(C)[nH]c2ccccc12` the T/C [14] was 101 % of control, the T/C [3] was 104 % of control and the T/C [5] was 101 % of control. For the same compound, the T/C [7] was 104 % of control.

For `N[P+](c1ccccc1)(c1ccccc1)c1ccccc1`, the T/C (dose: 12.5 mg/kg/injection, schedule: Q04DX002 (ip), vehicle: Klucel (hydroxypropylcellulose) (HPC)) was 109 % of control and the T/C (dose: 25.0 mg/kg/injection, schedule: Q04DX002 (ip), vehicle: Klucel (hydroxypropylcellulose) (HPC)) was 88 % of control.

`NC(=S)c1c(N)ncn1C1OC(CO)C(O)C1O` (stereo not given) was tested, and the T/C (dose: 100.0 mg/kg/injection, schedule: Q01DX005 (ip), vehicle: saline) was 92 % of control and the T/C (dose: 200.0 mg/kg/injection, schedule: Q01DX005 (ip), vehicle: saline) was 90 % of control.

For `O=C(O)c1ccc2c(c1Nc1ccc(-c3ccc(Nc4c(C(=O)O)ccc5c4C(=O)c4ccccc4C5=O)cc3)cc1)C(=O)c1ccccc1C2=O`, the T/C [9] was 93 % of control, the T/C [11] was 97 % of control and the T/C [13] was 101 % of control.

With `O=C(Sc1ccccc1-n1cccc1)c1ccccc1` the T/C [15] was 109 % of control, the T/C [16] was 100 % of control and the T/C [17] was 102 % of control.

`Cc1ccc([N+](=O)[O-])cc1NC(=O)COc1cc(Cl)c(Cl)cc1Cl` was tested, and the T/C [15] was 89 % of control, the T/C [16] was 94 % of control and the T/C [17] was 98 % of control.

`CC1C(=O)OC2CC[N+]3(CC(=O)c4ccc(Br)cc4)CC=C(COC(=O)C(C)(O)C1(C)O)C23` (stereo not given) was tested, and the T/C (dose: 100.0 mg/kg/injection, schedule: Q04DX003 (ip), vehicle: saline) was 104 % of control, the T/C (dose: 200.0 mg/kg/injection, schedule: Q04DX003 (ip), vehicle: saline) was 102 % of control and the T/C (dose: 400.0 mg/kg/injection, schedule: Q04DX003 (ip), vehicle: saline) was 87 % of control.

`CC1(C)OC2OC(C(O)CO)C(O)C2O1` (stereo not given) (tested in a mixture with another compound) was tested, and the T/C (dose: 12.5 mg/kg/injection, schedule: Q04DX002 (ip), vehicle: saline) was 100 % of control, the T/C (dose: 25.0 mg/kg/injection, schedule: Q04DX002 (ip), vehicle: saline) was 95 % of control and the T/C (dose: 50.0 mg/kg/injection, schedule: Q04DX002 (ip), vehicle: saline) was 95 % of control.

In the case of `O=[N+]([O-])c1ccc(N/N=C(\Oc2ccccc2)c2ccc([N+](=O)[O-])cc2)cc1`, the T/C (dose: 100.0 mg/kg/injection, schedule: Q04DX003 (ip), vehicle: saline with Tween-80) is reported as 94 % of control and the T/C (dose: 200.0 mg/kg/injection, schedule: Q04DX003 (ip), vehicle: saline with Tween-80) is reported as 90 % of control.

With `CCOC(=O)C(OC(=O)c1ccccc1)C(OC(=O)c1ccccc1)C(=O)OCC` (stereo not given) the T/C [3] was 102 % of control, the T/C [5] was 100 % of control and the T/C [7] was 93 % of control.

With `Nc1nc(Cl)nc(C(Cl)(Cl)Cl)c1Cl` (tested in a mixture with another compound) the T/C [18] was 94 % of control, the T/C [8] was 87 % of control and the T/C [10] was 97 % of control.

With `C1=CC2CC1CC2/C=N\N=C\C1CC2C=CC1C2` (stereo not given) the T/C [19] was 118 % of control and the T/C [20] was 121 % of control.

In the case of `CNC(=O)NC(C)(C)CCCCC(C)(C)NC(=O)NC`, the T/C [14] is reported as 104 % of control, the T/C [3] is reported as 102 % of control and the T/C [5] is reported as 93 % of control. The T/C [7] was 96 % of control.

`O=[N+]([O-])c1cc2c(cc1Br)C1C(C3C2C(Cl)(Cl)C(Cl)=C(Cl)C3(Cl)Cl)C(Cl)(Cl)C(Cl)=C(Cl)C1(Cl)Cl` (stereo not given) was tested, and the T/C [3] was 95 % of control, the T/C [5] was 100 % of control and the T/C [7] was 94 % of control.

In the case of `O=C(Nc1ccccn1)Nc1cc(C(F)(F)F)ccc1Cl`, the T/C (dose: 100.0 mg/kg/injection, schedule: Q01DX001 (ip), vehicle: Klucel (hydroxypropylcellulose) (HPC)) is reported as 98 % of control, the T/C [8] is reported as 95 % of control and 90 % of control and the T/C [19] is reported as 95 % of control and 103 % of control. For the same compound, the T/C [9] was 108 % of control, the T/C (dose: 200.0 mg/kg/injection, schedule: Q01DX001 (ip), vehicle: Klucel (hydroxypropylcellulose) (HPC)) was 91 % of control and the T/C [10] was 92 % of control. The T/C [20] was 98 % of control and 103 % of control, the T/C [11] was 97 % of control and the T/C (dose: 400.0 mg/kg/injection, schedule: Q01DX001 (ip), vehicle: Klucel (hydroxypropylcellulose) (HPC)) was 98 % of control. The T/C [12] was 95 % of control, the T/C (dose: 400.0 mg/kg/injection, schedule: Q04DX002 (ip), vehicle: Klucel (hydroxypropylcellulose) (HPC)) was 93 % of control and 97 % of control and the T/C [13] was 96 % of control.

With `CC(=O)OC1CCC2(C)C(CCC3C2CCC2(C)C3CCC2C(C)(C)O)C1` (stereo not given) the T/C (dose: 100.0 mg/kg/injection, schedule: Q04DX002 (ip), vehicle: DMSO) was 99 % of control, the T/C (dose: 200.0 mg/kg/injection, schedule: Q04DX002 (ip), vehicle: DMSO) was 92 % of control and the T/C (dose: 400.0 mg/kg/injection, schedule: Q04DX002 (ip), vehicle: DMSO) was 92 % of control.

With `N#Cc1c(N)nc2ccccc2[n+]1[O-]` the T/C [18] was 94 % of control, the T/C [8] was 97 % of control and the T/C [10] was 100 % of control.
